Data on eight compounds can be found in patent US20260347372A1, “SMALL MOLECULE INHIBITORS OF KRAS G12D MUTANT” (MERCK SHARP & DOHME LLC, priority 2023, published 2026).

One test deals with KRAS G12D (Homo sapiens, UniProt P01116, G12D). Nature of the test: SOS-catalyzed nucleotide exchange assay, KRAS G12D (Procedure A). The class given is biochemical. The settings on record: guanine nucleotide exchange (GNE). The method in brief:
(§1)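 Compounds were preincubated 60 min with a biotinylated RAS·Bodipy-GDP/Tb-streptavidin TR-FRET complex, and exchange was started with human SOS plus 3 mM GTP at RT. RAS/SOS: G12C 3 nM/40 nM, WT and G12D 1 nM/40 nM, all 60 min; G13D 1.25 nM/0 nM, 30 min. 520/495 ratio normalized to DMSO and saturating inhibitor, four-parameter fit.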

The target of a further test is KRAS WT (Homo sapiens, UniProt P01116). In words: SOS-catalyzed nucleotide exchange assay, KRAS WT (Procedure A). It counts as biochemical. The settings on record: GNE. The method in brief: as §1
The next test has as its target KRAS G12C (Homo sapiens, UniProt P01116, C118S/C51S/C80L/G12C). In words: SOS-catalyzed nucleotide exchange assay, KRAS G12C (Procedure A). It counts as biochemical. The settings on record: GNE. The text has this: (§2) Procedure for SOS-Catalyzed Nucleotide Exchange Assay for KRAS-WT, G12C/D/V, G13D, HRAS, and NRAS (Procedure A)
(§3) Recombinant KRAS-G12C protein used in this assay has an additional triple mutation (C51S/C80L/C118S). Whereas KRAS-WT, G12D/V, G13D, HRAS and NRAS are in context of their WT protein sequence background. Specifically, the SOS-catalyzed nucleotide exchange assay utilizes a preformed TR-FRET complex containing a specific biotinylated RAS protein (KRAS-WT, G12C/V/D, G13D, HRAS, NRAS; described above) with Bodipy-GDP, and Terbium-streptavidin. Compounds are preincubated with this complex for 60 minutes. Subsequently, recombinant human SOS protein and unlabeled GTP are added to initiate the exchange reaction. Small molecule inhibitors stabilize the Bodipy-GDP complex whereas the untreated protein rapidly exchanges Bodipy-GDP for unlabeled GTP resulting in reduced TR-FRET signal.
(§4) To assemble the preformed TR-FRET complexes, each biotinylated RAS protein is diluted to 2 μM in an EDTA Buffer (20 mM HEPES pH 7.5, 50 mM sodium chloride, 10 mM EDTA, and 0.01% Tween) and incubated at room temperature for one hour. This mixture is then further diluted to 90 nM in an Assay Buffer (20 mM HEPES pH 7.5, 150 mM sodium chloride, 10 mM magnesium chloride, and 0.005% Tween) containing 15 nM of Terbium-Streptavidin (Invitrogen, catalog #PV3577) and 900 nM of Bodipy-GDP (Invitrogen, catalog #G22360) and incubated at room temperature for six hours. It should be noted that this preformed TR-FRET complex for each of the RAS protein were made ahead of time, aliquoted and stored at −80° C. until the day of the experiment.
(§5) Each test compound (10 mM stock in DMSO) is diluted in DMSO to make a final-10-point, 3-fold dilution and is acoustically dispensed into a 384-well assay plate (Corning, catalog #3820) using an Echo 550 (Labcyte). Each well of the assay plate receives 3 μL of a specific 3×RAS preformed TR-FRET complex and 3 μL of Assay Buffer and is incubated at room temperature for 60 minutes (preincubation time). Each well then receives 3 μL of 3× recombinant human SOS protein and GTP (Sigma, G8877) in Assay Buffer and is incubated at room temperature for 30 minutes (G13D), 60 minutes (KRAS WT/G12C/D, H/NRAS) or 90 minutes for G12V. The final reaction in each well of 9 μL consists of 3 mM GTP, specific Ras and SOS proteins in the following concentrations: KRAS-G12C/SOS=3 nM/40 nM, KRAS-WT and G12D/SOS=1 nM/40 nM, KRAS-G12V/SOS=1.25 nM/160 nM, KRAS-G13D/SOS=1.25 nM/0 nM, HRAS and NRAS=1.25 nM/40 nM.
(§6) The time-resolved fluorescence resonance energy transfer (TR-FRET) signal is measured on an Envision (PerkinElmer) plate reader: Excitation filter=340 nm; emission1=495 nm; emission2=520 nm; dichroic mirror=D400/D505; delay time=[…]. The signal of each well is determined as the ratio of the emission at 520 nm to that at 495 nm. Percent effect of each well is determined after normalization to control wells containing DMSO (no effect) or a saturating concentration of inhibitor (max effect). The apparent effect as a function of compound concentration is fit to a four-parameter logistic equation.
(§7) For Example No. 14, nucleotide exchange assays for KRAS G12D, WT, G12C, and G12V were performed according to Procedure B. All the other compounds were tested according to Procedure A.

For a further test, the target named is KRAS G12V (Homo sapiens, UniProt P01116, G12V). In words: SOS-catalyzed nucleotide exchange assay, KRAS G12V (Procedure A). It counts as biochemical. The settings on record: GNE. The method in brief:
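Biotinylated KRAS G12V was loaded with Bodipy-GDP alongside Terbium-streptavidin to form a TR-FRET complex, which was preincubated with compounds for 60 minutes in 384-well plates. Human SOS protein and unlabeled GTP were then added for 90 minutes, giving final concentrations of 1.25 nM KRAS-G12V, 160 nM SOS and 3 mM GTP. The 520/495 nm emission ratio was read on an Envision.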

The target in another test is KRAS G13D (Homo sapiens, UniProt P01116, G13D). Nature of the test: SOS-catalyzed nucleotide exchange assay, KRAS G13D (Procedure A). It counts as biochemical. As to conditions: GNE.
Text: as §2, §3, §4, §5, §6, §7

Another test concerns the target HRAS (Homo sapiens, UniProt P01112). In words: SOS-catalyzed nucleotide exchange assay, HRAS (Procedure A). The class given is biochemical. As to conditions: GNE.
Text: as §2, §3, §4, §5, §6, §7

For the next test, the target named is NRAS (Homo sapiens, UniProt P01111). In words: SOS-catalyzed nucleotide exchange assay, NRAS (Procedure A). It counts as biochemical. The settings on record: GNE.
Text: as §2, §3, §4, §5, §6, §7

For the next test, the target named is T1, AsPC-1 cells (Homo sapiens, UniProt P01116, G12D).
T1 construct: p-ERK/total ERK AlphaSureFire read-out
Nature of the test: Cellular phospho-ERK assay, AsPC-1 cells (KRAS G12D). The class given is cell-based. As to conditions: 2 hours, read-out: AsPC1 pERK IC50. In short, it runs like this:
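PANC08.13 or AsPC-1 cells (homozygous KRAS G12D) were seeded overnight, then treated for 2 h at 37 °C with a 10-point 1:3 titration from 30 μM. Lysates were assayed by AlphaLISA SureFire for p-ERK and total ERK. IC50 came from a 4-parameter fit of the p-ERK/total ERK ratio.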

Sequence of HRAS (P01112 with tags, fused parts or gaps): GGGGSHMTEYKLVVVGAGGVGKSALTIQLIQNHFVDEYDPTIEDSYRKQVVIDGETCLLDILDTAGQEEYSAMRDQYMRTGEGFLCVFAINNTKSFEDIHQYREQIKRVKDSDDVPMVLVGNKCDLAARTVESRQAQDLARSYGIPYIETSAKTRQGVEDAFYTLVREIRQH
Sequence of KRAS G12V (P01116 with tags, fused parts or gaps isoform P01116-2 G12V): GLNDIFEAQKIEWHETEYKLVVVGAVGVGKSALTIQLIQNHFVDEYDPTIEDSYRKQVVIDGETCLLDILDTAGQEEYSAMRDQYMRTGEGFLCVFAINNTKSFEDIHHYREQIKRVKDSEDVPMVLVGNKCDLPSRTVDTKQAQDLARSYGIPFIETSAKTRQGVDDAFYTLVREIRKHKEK
Sequence of KRAS G12D (P01116 with tags, fused parts or gaps isoform P01116-2 G12D): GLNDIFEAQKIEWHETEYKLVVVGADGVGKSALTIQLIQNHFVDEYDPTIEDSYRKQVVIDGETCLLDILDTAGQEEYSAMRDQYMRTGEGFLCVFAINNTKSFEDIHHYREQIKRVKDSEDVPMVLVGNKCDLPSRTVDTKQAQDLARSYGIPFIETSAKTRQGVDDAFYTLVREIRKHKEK
T1 sequence (P01116 1-188 isoform P01116-2 G12D): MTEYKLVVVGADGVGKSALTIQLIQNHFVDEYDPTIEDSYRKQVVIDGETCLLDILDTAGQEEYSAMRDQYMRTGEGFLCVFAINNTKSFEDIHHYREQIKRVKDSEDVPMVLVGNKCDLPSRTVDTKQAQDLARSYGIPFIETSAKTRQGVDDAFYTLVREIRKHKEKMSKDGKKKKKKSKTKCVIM
Sequence of KRAS G12C (P01116 with tags, fused parts or gaps isoform P01116-2 G12C/C51S/C80L/C118S): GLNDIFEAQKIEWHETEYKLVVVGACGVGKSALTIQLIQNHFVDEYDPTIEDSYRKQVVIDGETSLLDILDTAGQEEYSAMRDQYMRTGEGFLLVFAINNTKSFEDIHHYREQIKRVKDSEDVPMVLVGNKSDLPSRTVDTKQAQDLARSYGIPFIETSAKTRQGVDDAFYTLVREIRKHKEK
Sequence of KRAS G13D (P01116 with tags, fused parts or gaps isoform P01116-2 G13D): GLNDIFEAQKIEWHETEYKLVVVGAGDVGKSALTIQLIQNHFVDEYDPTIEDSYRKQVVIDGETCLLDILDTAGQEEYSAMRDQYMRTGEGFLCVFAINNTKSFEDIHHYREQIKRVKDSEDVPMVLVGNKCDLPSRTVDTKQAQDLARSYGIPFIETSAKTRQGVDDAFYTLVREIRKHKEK
Sequence of NRAS (P01111 with tags, fused parts or gaps): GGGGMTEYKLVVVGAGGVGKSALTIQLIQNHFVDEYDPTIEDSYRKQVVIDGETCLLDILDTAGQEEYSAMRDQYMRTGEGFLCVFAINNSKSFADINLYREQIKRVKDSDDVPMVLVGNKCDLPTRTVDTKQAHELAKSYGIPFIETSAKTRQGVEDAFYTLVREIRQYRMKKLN
Sequence of KRAS WT (P01116 with tags, fused parts or gaps isoform P01116-2): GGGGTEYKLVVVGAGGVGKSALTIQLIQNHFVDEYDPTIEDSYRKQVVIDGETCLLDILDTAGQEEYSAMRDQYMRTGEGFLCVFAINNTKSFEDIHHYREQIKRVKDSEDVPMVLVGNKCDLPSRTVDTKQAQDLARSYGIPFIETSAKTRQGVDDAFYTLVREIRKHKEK

A word on the IC50: it is the concentration needed to halve the response being measured. As for `Cc1cc2[nH]ncc2c(-c2nccc3c2sc2nc(OC[C@H]4C[C@H](S(C)(=N)=O)C4)nc(N4C[C@H]5CC[C@@H](C4)N5)c23)c1C(F)(F)F` (stereo partly drawn) [Ex-35, (1S)-((1R,3S)-3-(((4-((1R,5S)-3,8-diazabicyclo[3.2.1]octan-3-yl)-8-(6-methyl-5-(trifluoromethyl)-1H-indazol-4-yl)pyrido[4′,3′:4,5]thieno[2,3-d]pyrimidin-2-yl)oxy)methyl)cyclobutyl)(imino) (methyl)-λ^6-sulfanone], the IC50 against KRAS G12D was 1.43 µM; against KRAS WT it was above 11.1 µM; on KRAS G12C, above 11.1 µM; at KRAS G12V it was above 11.1 µM; at KRAS G13D, above 11.1 µM; against HRAS it was above 11.1 µM. In addition, the values for the IC50 against NRAS and on AsPC-1 cells were above 11.1 µM and above 30 µM, respectively.
On to `Cc1cc2[nH]ncc2c(-c2nccc3c2sc2nc(OCC4CCS(=O)(=O)CC4)nc(N4C[C@H]5CC[C@@H](C4)N5)c23)c1C(F)(F)F` [Ex-36, 4-(((4-((1R,5S)-3,8-diazabicyclo[3.2.1]octan-3-yl)-8-(6-methy1-5-(trifluoromethyl)-1H-indazol-4-yl)pyrido[4′,3′:4,5]thieno[2,3-d]pyrimidin-2-yl)oxy)methyl)tetrahydro-2H-thiopyran 1,1-dioxide], for which the IC50 at KRAS G12D is 4.12 µM; against KRAS WT, above 11.1 µM; against KRAS G12C, above 11.1 µM; against KRAS G12V it was above 11.1 µM; on KRAS G13D, above 11.1 µM; on HRAS it was above 11.1 µM. For the same compound, the IC50 against NRAS was above 11.1 µM; at AsPC-1 cells it was 28.4 µM.
For `Cc1cc2[nH]ncc2c(-c2nccc3c2sc2nc(OCC4(C)CNC(=O)C4)nc(N4C[C@H]5CC[C@@H](C4)N5)c23)c1C(F)(F)F` (stereo partly drawn) [Ex-37, 4-(((4-((1R,5S)-3,8-diazabicyclo[3.2.1]octan-3-yl)-8-(6-methy1-5-(trifluoromethyl)-1H-indazol-4-yl)pyrido[4′,3′:4,5]thieno[2,3-d]pyrimidin-2-yl)oxy)methyl)-4-methylpyrrolidin-2-one], the IC50 on KRAS G12D was 1.28 µM; against KRAS WT, above 11.1 µM; on KRAS G12C, above 11.1 µM; against KRAS G12V, above 11.1 µM; against KRAS G13D, above 11.1 µM; against HRAS it was above 11.1 µM. Further, the IC50 against NRAS is above 11.1 µM; on AsPC-1 cells it was above 30 µM.
Turning to `Cc1cc2[nH]ncc2c(-c2nccc3c2sc2nc(OCC4(C#N)CCOCC4)nc(N4C[C@H]5CC[C@@H](C4)N5)c23)c1C(F)(F)F` [Ex-38, 4-(((4-((1R,5S)-3,8-diazabicyclo[3.2.1]octan-3-yl)-8-(6-methyl-5-(trifluoromethyl)-1H-indazol-4-yl)pyrido[4′,3′:4,5]thieno[2,3-d]pyrimidin-2-yl)oxy)methyl)tetrahydro-2H-pyran-4-carbonitrile], the IC50 on KRAS G12D is 3.79 µM; against KRAS WT, above 11.1 µM; at KRAS G12C, above 11.1 µM; against KRAS G12V it was above 11.1 µM; at KRAS G13D, 3.55 µM; against HRAS, above 11.1 µM. Moreover, the IC50 on NRAS was above 11.1 µM; on AsPC-1 cells it was above 30 µM.
For the compound `Cc1cc2[nH]ncc2c(-c2nccc3c2sc2nc(OCC4(C)CS(=O)(=O)C4)nc(N4C[C@H]5CC[C@@H](C4)N5)c23)c1C(F)(F)F` [Ex-39, 3-(((4-((1R,5S)-3,8-diazabicyclo[3.2.1]octan-3-yl)-8-(6-methyl-5-(trifluoromethyl)-1H-indazol-4-yl)pyrido[4′,3′:4,5]thieno[2,3-d]pyrimidin-2-yl)oxy)methyl)-3-methylthietane 1,1-dioxide], the IC50 is 2.42 µM against KRAS G12D; above 11.1 µM against KRAS WT; above 11.1 µM against KRAS G12C; above 11.1 µM on KRAS G12V; above 11.1 µM at KRAS G13D; above 11.1 µM against HRAS. For the same compound, the IC50 at NRAS is above 11.1 µM; at AsPC-1 cells, 12.8 µM.
In the case of `C#Cc1csc2cc3[nH]ncc3c(-c3nccc4c3sc3nc(OC[C@@]56CCCN5C[C@H](F)C6)nc(N5C[C@H]6CC[C@@H](C5)N6)c34)c12` [Ex-54, 4-((1R,5S)-3,8-diazabicyclo[3.2.1]octan-3-yl)-8-(5-ethynyl-1H-thieno[3,2-f]indazol-4-yl)-2-(((2R,7aS)-2-fluorotetrahydro-1H-pyrrolizin-7a(5H)-yl)methoxy)pyrido[4′,3′:4,5]thieno[2,3-d]pyrimidine], the IC50 at KRAS G12D was 0.00192 µM; against KRAS WT, 0.0807 µM; on KRAS G12C it was 0.0227 µM; at KRAS G12V, 0.0627 µM; at KRAS G13D, 0.0148 µM; against HRAS it was above 11.1 µM. In addition, the IC50 against NRAS was above 11.1 µM; on AsPC-1 cells, 0.0314 µM.
`C#Cc1cccc2cc3[nH]ncc3c(-c3nccc4c3sc3nc(OC[C@@]56CCCN5C[C@H](F)C6)nc(N5C[C@H]6CC[C@@H](C5)N6)c34)c12` [Ex-55, 4-((1R,5S)-3,8-diazabicyclo[3.2.1]octan-3-yl)-8-(5-ethynyl-1H-benzo[f]indazol-4-yl)-2-(((2R,7aS)-2-fluorotetrahydro-1H-pyrrolizin-7a(5H)-yl)methoxy)pyrido[4′,3′:4,5]thieno[2,3-d]pyrimidine]: the IC50 is 0.00131 µM on KRAS G12D; 0.148 µM against KRAS WT; 0.0739 µM against KRAS G12C; 0.105 µM on KRAS G12V; 0.0425 µM on KRAS G13D; above 11.1 µM on HRAS. Besides, the results for the IC50 against NRAS and on AsPC-1 cells were above 11.1 µM and 0.025 µM, respectively.
Take `Fc1ccc2cc3[nH]ncc3c(-c3nccc4c3sc3nc(OC[C@@]56CCCN5C[C@H](F)C6)nc(N5C[C@H]6CC[C@@H](C5)N6)c34)c2c1Cl` [Ex-59, 4-((1R,5S)-3,8-diazabicyclo[3.2.1]octan-3-yl)-8-(5-chloro-6-fluoro-1H-benzo[f]indazol-4-yl)-2-(((2R,7aS)-2-fluorotetrahydro-1H-pyrrolizin-7a(5H)-yl)methoxy)pyrido[4′,3′:4,5]thi-eno[2,3-d]pyrimidine]: the IC50 is 0.00925 µM against KRAS G12D; 1.65 µM against KRAS WT; 0.182 µM at KRAS G12C; 1.37 µM at KRAS G12V; 0.265 µM at KRAS G13D; above 11.1 µM against HRAS. The IC50 against NRAS was above 11.1 µM; on AsPC-1 cells it was 0.217 µM.
